Test system: MDA-231 cancer cells
Test: Inhibition of proliferation assay, cell confluence (IncuCyte live cell imaging)
Type: cell-based
Conditions: MDA-231 cells, concentration 10 uM; relative confluence normalised to time zero, images every 3 h over 4-5 d
From the text: Inhibition of Proliferation Assay Cell Confluence The confluence value is a surrogate for cell proliferation and growth. The value is expressed as a percent confluence, which represents the fraction of culture dish-surface that is occupied by cells. As the number of cells in the dish increases over time due to proliferation, so will their coverage of that surface increase. Expansion of the cell population on the cell culture-dish surface and confluence have mostly a linear relationship until the cells on the plate surface begin to reach saturation or maximum density. Confluence is determined based on image analysis. Image based software can identify objects in the image field base on changes to pixel density in a grey scale image. The software can then assign a mask to those pixels within the object. Objects can be ‘gated’ out based on size and shape. To determine cell confluence, images of cells are first masked as objects. The surface area of the image that is masked is measured and compared to the total surface area of the culture dish surface to obtain a percent confluence. MDA-231 cancer cells were obtained from ATCC. Cells were cultured in Dulbecco's Modified Eagle Medium (DMEM) supplemented with 10% Fetal Bovine Serum (FBS), 2 mM Glutamax, 1 mM Non Essential Amino Acid (NEAA) solution and 1 mM sodium pyruvate. Compounds were dissolved in DMSO at 10 mM and diluted in cellular medium and tested at 10 μM (micromolar). Final DMSO concentrations were <0.1%. Images were acquired with an IncuCyte Live Cell Imaging microscopy (Essen Bioscience) at every 3 h under cell culture conditions with 10× objective over 4-5 d. Cell confluence was calculated from one field of view per well using the IncuCyte in-built algorithm. Relative confluence values were obtained by normalising each value to the time zero value in each sample.

| SMILES | % Confluence [%] |
| --- | --- |
| CC[C@H]1OC(=O)[C@H](C)[C@@H](O[C@H]2C[C@@](C)(OC)[C@@H](O)[C@H](C)O2)[C@H](C)[C@@H](O[C@@H]2O[C@H](C)C[C@H](N(C)C)[C@H]2O)[C@](C)(O)C[C@@H](C)CN(C(=O)CCCCCCCCCCCCC[P+](c2ccccc2)(c2ccccc2)c2ccccc2)[C@H](C)[C@@H](O)[C@]1(C)O [Example 1, {14-[(2R,3S,4R,5R,8R,10R,11R,12S,13S,14R)-11-{[(2S,3R,4S,6R)-4-(dimethylamino)-3-hydroxy-6-methyloxan-2-yl]oxy}-2-ethyl-3,4,10-trihydroxy-13-{[(2R,4R,5S,6S)-5-hydroxy-4-methoxy-4,6-dimethyloxan-2-yl]oxy}-3,5,8,10,12,14-hexamethyl-15-oxo-1-oxa-6-azacyclopentadecan-6-yl]-14-oxotetradecyl}triphenylphosphonium hexafluorophosphate(V)] | 4.2 |
| CC[C@H]1OC(=O)[C@H](C)[C@@H](O[C@H]2C[C@@](C)(OC)[C@@H](O)[C@H](C)O2)[C@H](C)[C@@H](O[C@@H]2O[C@H](C)C[C@H](N(C)C)[C@H]2O)[C@](C)(O)C[C@@H](C)CN(C(=O)CCCCCCCCC[P+](c2ccccc2)(c2ccccc2)c2ccccc2)[C@H](C)[C@@H](O)[C@]1(C)O [Example 2, {10-[(2R,3S,4R,5R,8R,10R,11R,12S,13S,14R)-11-{[(2S,3R,4S,6R)-4-(dimethylamino)-3-hydroxy-6-methyloxan-2-yl]oxy}-2-ethyl-3,4,10-trihydroxy-13-{[(2R,4R,5S,6S)-5-hydroxy-4-methoxy-4,6-dimethyloxan-2-yl]oxy}-3,5,8,10,12,14-hexamethyl-15-oxo-1-oxa-6-azacyclopentadecan-6-yl]-10-oxodecyl}triphenylphosphonium hexafluorophosphate(V)] | 13.4 |
| CC[C@H]1OC(=O)[C@H](C)[C@@H](O[C@H]2C[C@@](C)(OC)[C@@H](O)[C@H](C)O2)[C@H](C)[C@@H](O[C@@H]2O[C@H](C)C[C@H](N(C)C)[C@H]2O)[C@](C)(O)C[C@@H](C)CN(C(=O)CCCCCCCC[P+](c2ccccc2)(c2ccccc2)c2ccccc2)[C@H](C)[C@@H](O)[C@]1(C)O [Example 3, {9-[(2R,3S,4R,5R,8R,10R,11R,12S,13S,14R)-11-{[(2S,3R,4S,6R)-4-(dimethylamino)-3-hydroxy-6-methyloxan-2-yl]oxy}-2-ethyl-3,4,10-trihydroxy-13-{[(2R,4R,5S,6S)-5-hydroxy-4-methoxy-4,6-dimethyloxan-2-yl]oxy}-3,5,8,10,12,14-hexamethyl-15-oxo-1-oxa-6-azacyclopentadecan-6-yl]-9-oxononyl}triphenylphosphonium hexafluorophosphate(V)] | 98.4 |
| CC[C@H]1OC(=O)[C@H](C)[C@@H](O[C@H]2C[C@@](C)(OC)[C@@H](O)[C@H](C)O2)[C@H](C)[C@@H](O[C@@H]2O[C@H](C)C[C@H](N(C)C)[C@H]2O)[C@](C)(O)C[C@@H](C)CN(C(=O)CCCCCC[P+](c2ccccc2)(c2ccccc2)c2ccccc2)[C@H](C)[C@@H](O)[C@]1(C)O [Example 4, {7-[(2R,3S,4R,5R,8R,10R,11R,12S,13S,14R)-11-{[(2S,3R,4S,6R)-4-(dimethylamino)-3-hydroxy-6-methyloxan-2-yl]oxy}-2-ethyl-3,4,10-trihydroxy-13-{[(2R,4R,5S,6S)-5-hydroxy-4-methoxy-4,6-dimethyloxan-2-yl]oxy}-3,5,8,10,12,14-hexamethyl-15-oxo-1-oxa-6-azacyclopentadecan-6-yl]-7-oxoheptyl}triphenylphosphonium hexafluorophosphate(V)] | 89.9 |
